Counter-ions that a name gives are not always drawn. Like-named read-outs stand apart in the source and are kept apart here.
Key:
p97 = p97 (Homo sapiens, UniProt P55072); test: P97 ATPase biochemical assay (ADP Glo)
Procedure: The ATPase assay is performed according the following protocol: Purified enzyme (20 nM p97), substrate (20 μM ATP) and a dose titration of compounds are mixed in buffer (50 mM TRIS pH 7.5, 20 mM MgCl2, 0.02% TX-100, 1 mM DTT, 0.2% (v/v) glycerol) and incubated at 37° C. for 15 minutes. The reaction is terminated and the level of product generated is measured using the ADP Glo Assay Kit (Promega, Madison Wis.). Plotting product generated versus compound concentration and using a four-parameter fit model generates an IC50 value for each compounds.
The p97 assay is an initial screening assay used to determine inhibitory activity of the monocyclic pyrimidine compounds of the invention against the p97 complex. As discussed above, inhibition of activity of the p97 proteosome complex can enable apoptosis and cause elimination of neoplastic cells (cancer cells). The method follows that of Christianson in Nat. Cell Biol., (2011) 14:93.
Assay Buffer is a mixture of 50 mM TRIS pH 7.5, 20 mM MgCl2, 0.02% TX-100, 1 mM DTT and 0.2% (v/v) Glycerol. The well plate is Platetype: Corning 3674, 384w plate. The identification kit is an ADP glo kit (Promega): stop buffer, detection reagent.
Serial dilute compound in DMSO in a 1:3.33-fold 10 point serial dilution.
0.5 μL compound serial diluted in DMSO (Final Conc. 10%)
2 μL ATP (Final Conc.=20 uM, diluted in assay buffer)
2.5 μL p97 (Final Conc.=20 nM, diluted in assay buffer)
Incubate at 37 degC for 15 min.
Add 5 μL of stop buffer, incubate at RT for 40 min.
Add 10 μL of detection reagent, incubate at RT for 30 min.
Read luminescence on Envision plate reader. • Upon obtaining the data from the luminescence reading, the data may be analyzed as follows:
Normalize luminescence data using no enzyme (full inhibition) and no compound (no inhibition) controls. Plot normalized luminescence data against log-transformed concentration values and fit to a sigmoidal curve to determine IC50 values (done in Collaborative Drug Discovery software).
The results are reported on the following Table for Examples A-EE and the E1-E4 compounds as 50 percent Inhibitory concentration at candidate doses of less than 30 nM, less than 100 nM, less than 300 nM and less than 1000 nM for the p97 inhibition assay.

A549 cells = test: Cultured cancer cell viability assay (cell titer glo, A549 CTG); assay type: cell-based; settings: Homo sapiens
Text: Anti-tumor effects are monitored in cultured cancer cells after several days of compound treatment. The cell titer glo assay (Promega) measures the amount of ATP present as a proxy for cellular viability. Cellular counting is done using high-content microscopy followed by image analysis. A hanging drop 3D-culture system (3D Biomatrix) is used followed by cell titer glo to measure growth in a tumor-like environment.
The cellular assay provides information about the anti-neoplastic activity of the compounds of the invention. The compounds are tested against cultured cancer cells to determine whether or not the compounds of the invention are capable of intersecting with cancer cells to minimize or eliminate such cells. The assay involves establishing colonies of such cells and then treating them with the test compound under specified conditions and analysis regime to determine results.
(§1) Plate 25 μL of A549 cells in every well of 384-well plate using multidrop.
One (1) white plate for viability at 500 cells/well.
Serial dilute compounds with a 10 point 2-fold serial dilution in DMSO to make 250× stock compound solution
Dilute compounds 1:125 in cell culture media to make a 2× solution Add 25 μl of dilution compounds to cell plates in well duplicates
Put cells back in incubator (6 hr incubation for black plates, 72 hr incubation for white plates).
Thaw an aliquot of frozen cell titer glo (Promega G7572) at room temperature.
Add 45 mL of NaCl/PBS solution to 5 ml of cell titer glo (10×).
Remove white plates from incubator, leave at room temp for 30 minutes.
Add 25 μl of diluted cell titer glo to each well.
Shake plate for >1 minute.
Incubate plate for >5 minutes to stabilize luminescence. • Luminescence is stable for up to 3 hours.
Read luminescence on plate reader
The results are reported on the following Table I for Examples A-EE and the E1-E4 compounds as 50 percent Inhibitory concentration at candidate doses of less than 1 μM, less than 3 μM and less than 10 μM for both of the K48 antibody and the p53 (CTG) antibody assays

[1] = tested on: K48 poly-Ubiquitin accumulation in A549 cells; test: A549 K48 poly-ubiquitin accumulation immunofluorescence assay; assay type: cell-based; settings: Homo sapiens
Procedure: Image-analysis is used to generate quantitative data from these assays that can be fit to a four-parameter sigmoid curve to derive IC50 values. Substrates of the ubiquitin-proteasome system, such as p53, are monitored after tumor cell lines are incubated with compounds for several hours. Accumulation of these proteins indicates an inhibition of proteasome-mediated degradation. Accumulation of lysine-48 chain linkage of poly-ubiquitin is also monitored by immunofluorescence as an indicator of ubiquitin-proteasome system inhibition. Both LC3 and SQSTM1 are mediators of autophagy. The localization and amounts of these proteins are monitored by immunofluorescence and report on the activity and inhibition of autophagy in response to p97 inhibition.
as §1
Two (2) black plates for IF at 2500 cells/well
Serial dilute compounds with a 10 point 2-fold serial dilution in DMSO to make 250× stock compound solution Dilute compounds 1:125 in cell culture media to make a 2× solution Add 25 μl of dilution compounds to cell plates in well duplicates Put cells back in incubator (6 hr incubation for black plates, 72 hr incubation for white plates).
Incubate cells in black plates with compound at 37 degC for 6 hrs. add 15 μL of 16% Paraformaldehyde (PFA) directly into media of each well, incubate at room temp for 5 min, flick plate and wash in 50 μL of PBS block in 50 μL of Blocking Buffer for 30 minutes (can go up to several hours) Blocking buffer: 1×PBS, 1% BSA, 0.3% Triton-X100, Hoechst (1:10,000) incubate in 25 μL of primary antibody in blocking buffer at 4 degC over night […]
Secondary Antibodies: • AlexaFluor488 Goat anti-Rabbit 1:2,000 (Life Tech A11008) • AlexaFluor555 Goat anti-Mouse 1:2,000 (Life Tech A21422) incubate in 25 μl of secondary antibody (1:2,000) in blocking buffer for 1-2 hrs at room temp (alexafluor488-anti-Rabbit/alexafluor555-anti-Mouse) Image plates in high content microscope with 405 nm, 488 nm and 555 nm filters Nuclear counts and cellular intensities of each markers are measured using Hoechst as a nuclear marker with an automated image analysis protocol using Matlab software (Math Works) The results are reported on the following Table I for Examples A-EE and the E1-E4 compounds as 50 percent Inhibitory concentration at candidate doses of less than 1 μM, less than 3 μM and less than 10 μM for both of the K48 antibody and the p53 (CTG) antibody assays

[2] = 20 nM p97, 20 uM ATP, 37 degC 15 min
[3] = A549, Table II, preliminary assays, read-out: Cell Titre Glow Assay IC50
[4] = A549 cells, 72 hr incubation, cell titer glo, read-out: A549 CTG IC50
[5] = A549, Table II, preliminary assays, read-out: K48 poly-Ubiquitin Accumulation
[6] = A549 cells, 6 hr incubation, K48-Ub antibody, read-out: A549 K48 IC50

p97, sequence (P55072 whole entry): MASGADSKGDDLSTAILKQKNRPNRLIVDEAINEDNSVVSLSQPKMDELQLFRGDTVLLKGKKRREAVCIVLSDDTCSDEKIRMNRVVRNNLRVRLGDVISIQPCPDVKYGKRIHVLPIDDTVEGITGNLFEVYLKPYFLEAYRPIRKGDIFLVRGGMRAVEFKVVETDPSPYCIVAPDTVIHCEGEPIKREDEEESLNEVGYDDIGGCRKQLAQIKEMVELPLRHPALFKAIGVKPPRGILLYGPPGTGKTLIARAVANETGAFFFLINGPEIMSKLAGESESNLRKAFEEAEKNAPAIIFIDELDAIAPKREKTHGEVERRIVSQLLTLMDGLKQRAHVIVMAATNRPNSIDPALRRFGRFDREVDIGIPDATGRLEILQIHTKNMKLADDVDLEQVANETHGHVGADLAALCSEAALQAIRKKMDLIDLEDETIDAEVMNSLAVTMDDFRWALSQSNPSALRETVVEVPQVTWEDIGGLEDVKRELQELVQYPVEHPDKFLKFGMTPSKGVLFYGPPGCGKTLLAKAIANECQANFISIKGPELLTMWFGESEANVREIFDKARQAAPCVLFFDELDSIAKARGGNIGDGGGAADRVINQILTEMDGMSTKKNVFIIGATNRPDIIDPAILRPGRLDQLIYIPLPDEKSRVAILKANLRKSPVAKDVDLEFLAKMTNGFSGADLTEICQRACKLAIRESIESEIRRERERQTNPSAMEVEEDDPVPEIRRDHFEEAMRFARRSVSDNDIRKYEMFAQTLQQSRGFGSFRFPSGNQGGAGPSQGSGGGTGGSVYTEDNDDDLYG

| IC50 (p97; [2]) [µM] | IC50 (p97; Table II, preliminary assays) [µM] | IC50 (A549 cells; [3]) [µM] | IC50 (A549 cells; [4]) [µM] | IC50 [1, 5] [µM] | IC50 [1, 6] [µM] | Structure (SMILES) |
| --- | --- | --- | --- | --- | --- | --- |
| < 0.03 | 0.007 | 0.467 | < 1 | 0.89 | < 1 | COc1cnc(-n2c(C)cc3c(C(N)=O)cccc32)nc1NCc1ccccc1 [Example 3, 1-[4-(benzylamino)-5-methoxypyrimidin-2-yl]-2-methyl-1H-indole-4-carboxamide] |
| < 0.03 | – | – | < 3 | – | < 3 | Cc1cc2c(C(N)=O)cccc2n1-c1ncc(C(F)(F)F)c(NCc2ccccc2)n1 [Example 4, 1-[4-(benzylamino)-5-(trifluoromethyl)pyrimidin-2-yl]-2-methyl-1H-indole-4-carboxamide] |
| < 0.03 | 0.012 | 1.79 | < 3 | 1.4 | < 3 | Cc1cc2c(C(N)=O)cccc2n1-c1ncc(Cl)c(NCc2ccccc2)n1 [Example 5, 1-[4-(benzylamino)-5-chloropyrimidin-2-yl]-2-methyl-1H-indole-4-carboxamide] |
| < 0.03 | – | – | < 1 | – | < 1 | CCc1cnc(-n2c(C)cc3c(C(N)=O)cccc32)nc1NCc1ccccc1 [Example 6, 1-[4-(benzylamino)-5-ethylpyrimidin-2-yl]-2-methyl-1H-indole-4-carboxamide] |
| < 0.03 | – | – | < 3 | – | < 3 | COc1c(C)nc(-n2c(C)cc3c(C(N)=O)cccc32)nc1NCc1ccccc1 [Example 7, 1-[4-(benzylamino)-5-methoxy-6-methylpyrimidin-2-yl]-2-methyl-1H-indole-4-carboxamide] |
| < 1 | – | – | – | – | – | Cc1cc2c(C(N)=O)cccc2n1-c1ncc(OCCN)c(NCc2ccccc2)n1 [Example 25, 1-[5-(2-aminoethoxy)-4-(benzylamino)pyrimidin-2-yl]-2-methyl-1H-indole-4-carboxamide] |
| < 1 | – | – | – | – | – | Cc1cc2c(CN)cccc2n1-c1ncc(C(C)C)c(NCc2ccccc2)n1 [Example 39, 2-[4-(aminomethyl)-2-methyl-1H-indol-1-yl]-N-benzyl-5-(propan-2-yl)pyrimidin-4-amine] |

Further lines, the molecule ahead of its results:

| Structure (SMILES) | IC50 (p97; [2]) [µM] | IC50 (p97; Table II, preliminary assays) [µM] | IC50 (A549 cells; [3]) [µM] | IC50 (A549 cells; [4]) [µM] | IC50 [1, 5] [µM] | IC50 [1, 6] [µM] |
| --- | --- | --- | --- | --- | --- | --- |
| Cc1cc(NCc2ccccc2)nc(-n2c(C)cc3c(C(N)=O)cccc32)n1 [Example 1, 1-[4-(benzylamino)-6-methylpyrimidin-2-yl]-2-methyl-1H-indole-4-carboxamide] | < 0.1 | 0.042 | 2.01 | < 3 | 3 | < 10 |
| Cc1cnc(-n2c(C)cc3c(C(N)=O)cccc32)nc1NCc1ccccc1 [Example 2, 1-[4-(benzylamino)-5-methylpyrimidin-2-yl]-2-methyl-1H-indole-4-carboxamide] | < 0.03 | 0.022 | 0.97 | < 1 | 1.6 | < 3 |
| Cc1nc(-n2c(C)cc3c(C(N)=O)cccc32)nc(NCc2ccccc2)c1C(C)C [Example 8, 1-[4-(benzylamino)-6-methyl-5-(propan-2-yl)pyrimidin-2-yl]-2-methyl-1H-indole-4-carboxamide] | < 0.03 | – | – | < 3 | – | < 1 |
| Cc1c(NCc2ccccc2)nc(-n2c(C)cc3c(C(N)=O)cccc32)nc1C(F)(F)F [Example 9, 1-[4-(benzylamino)-5-methyl-6-(trifluoromethyl)pyrimidin-2-yl]-2-methyl-1H-indole-4-carboxamide] | < 0.03 | – | – | < 3 | – | < 3 |
| Cc1cc2c(C(N)=O)cccc2n1-c1ncc(C(N)=O)c(NCc2ccccc2)n1 [Example 10, 1-[4-(benzylamino)-5-carbamoylpyrimidin-2-yl]-2-methyl-1H-indole-4-carboxamide] | < 0.1 | – | – | < 10 | – | < 10 |
| Cc1cc2c(C(N)=O)cccc2n1-c1ncc(N)c(NCc2ccccc2)n1 [Example 17, 1-[5-amino-4-(benzylamino)pyrimidin-2-yl]-2-methyl-1H-indole-4-carboxamide] | < 1 | – | – | – | – | – |
| Cc1cc2c(C(N)=O)cccc2n1-c1ncc(CN(C)C)c(NCc2ccccc2)n1 [Example 21, 1-[4-(benzylamino)-5-[(dimethylamino)methyl]pyrimidin-2-yl]-2-methyl-1H-indole-4-carboxamide] | < 1 | – | – | – | – | – |
| Cc1cc2c(C(N)=O)cccc2n1-c1ncc(CN)c(NCc2ccccc2)n1 [Example 22, 1-[5-(aminomethyl)-4-(benzylamino)pyrimidin-2-yl]-2-methyl-1H-indole-4-carboxamide] | < 0.3 | – | – | – | – | – |
| CNCc1cnc(-n2c(C)cc3c(C(N)=O)cccc32)nc1NCc1ccccc1 [Example 23, 1-[4-(benzylamino)-5-[(methylaminoc)methyl]pyrimidin-2-yl]-2-methyl-1H-indole-4-carboxamide] | < 1 | – | – | – | – | – |
| Cc1cnc(-n2c(CN)cc3c(C(N)=O)cccc32)nc1NCc1ccccc1 [Example 31, 2-(aminomethyl)-1-[4-(benzylamino)-5-methylpyrimidin-2-yl]-1H-indole-4-carboxamide Hydrochloride] | < 1 | – | – | – | – | – |
| CCc1cnc(-n2c(CN)cc3c(C(N)=O)cccc32)nc1NCc1ccccc1 [Example 32, 2-(aminomethyl)-1-[4-(benzylamino)-5-ethylpyrimidin-2-yl]-1H-indole-4-carboxamide] | < 0.3 | – | – | – | – | – |

Reference: patent US9868722B2, “Monocyclic pyrimidine/pyridine compounds as inhibitors of P97 complex” (Cleave Biosciences, Inc., priority 2013, dated 2018)
